Assay results as given in US9963448B2, “Bicyclic inhibitors of PAD4” (Padlock Therapeutics, Inc., priority 2015, dated 2018).
Where two headings read alike, the source gives them in different places.

Key:
hPAD4 = hPAD4 (Homo sapiens, UniProt Q9UM07); assay: hPAD4 RFMS (RapidFire mass spectrometry) PAD4 inhibition assay; type: biochemical; conditions: hPAD4 enzyme, RFMS readout;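 on hPAD4 RFMS pIC50: grade E means pIC50 at most 4 and F means pIC50 4.0 to 5.0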
Procedure: (§1) Compounds of the present invention were assayed as inhibitors of PAD4 using the assay protocol described below.
(§2) Compound stock solutions were stored at RT. […] Final assay conditions were as follows:
(§3) Total incubation time: 65 mins at 37° C.
(§4) Stop solution: 40 μl 5% TCA in ACN
(§5) The compound numbers correspond to the compound numbers in Table 1. […] The term pIC50=−log(IC50). […] “NA” stands for “not assayed.”

mPAD4 = mPAD4 (Mus musculus, UniProt Q9Z183); assay: mPAD4 RFMS PAD4 inhibition assay; type: biochemical; conditions: mPAD4, RFMS readout;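 on mPAD4 RFMS pIC50: grade E means pIC50 at most 4 and F means pIC50 4.0 to 5.0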
Procedure: as §1, §2, §3, §4, §5

[1] = pIC50=−log(IC50), read-out: hPAD4 RFMS pIC50 (converted)
[2] = pIC50=−log(IC50), read-out: mPAD4 RFMS pIC50 (converted)

hPAD4, sequence (Q9UM07 whole entry): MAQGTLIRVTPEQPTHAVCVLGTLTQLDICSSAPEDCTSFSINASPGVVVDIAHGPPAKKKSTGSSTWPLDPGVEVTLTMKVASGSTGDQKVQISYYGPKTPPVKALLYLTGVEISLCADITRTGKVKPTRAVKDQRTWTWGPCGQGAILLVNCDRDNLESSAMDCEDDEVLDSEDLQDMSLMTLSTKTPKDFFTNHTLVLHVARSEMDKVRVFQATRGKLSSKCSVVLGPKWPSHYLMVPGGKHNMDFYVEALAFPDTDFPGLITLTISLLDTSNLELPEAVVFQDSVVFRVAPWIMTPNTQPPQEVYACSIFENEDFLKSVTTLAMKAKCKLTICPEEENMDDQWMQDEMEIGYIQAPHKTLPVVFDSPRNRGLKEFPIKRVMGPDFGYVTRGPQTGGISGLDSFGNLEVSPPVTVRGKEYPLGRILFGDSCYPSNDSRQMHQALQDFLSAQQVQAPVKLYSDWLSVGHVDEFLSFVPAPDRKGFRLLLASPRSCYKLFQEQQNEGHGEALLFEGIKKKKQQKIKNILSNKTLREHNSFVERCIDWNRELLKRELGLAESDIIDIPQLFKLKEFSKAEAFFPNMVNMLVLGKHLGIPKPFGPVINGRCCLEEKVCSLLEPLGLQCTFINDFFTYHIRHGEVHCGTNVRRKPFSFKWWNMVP
mPAD4, sequence (Q9Z183 whole entry): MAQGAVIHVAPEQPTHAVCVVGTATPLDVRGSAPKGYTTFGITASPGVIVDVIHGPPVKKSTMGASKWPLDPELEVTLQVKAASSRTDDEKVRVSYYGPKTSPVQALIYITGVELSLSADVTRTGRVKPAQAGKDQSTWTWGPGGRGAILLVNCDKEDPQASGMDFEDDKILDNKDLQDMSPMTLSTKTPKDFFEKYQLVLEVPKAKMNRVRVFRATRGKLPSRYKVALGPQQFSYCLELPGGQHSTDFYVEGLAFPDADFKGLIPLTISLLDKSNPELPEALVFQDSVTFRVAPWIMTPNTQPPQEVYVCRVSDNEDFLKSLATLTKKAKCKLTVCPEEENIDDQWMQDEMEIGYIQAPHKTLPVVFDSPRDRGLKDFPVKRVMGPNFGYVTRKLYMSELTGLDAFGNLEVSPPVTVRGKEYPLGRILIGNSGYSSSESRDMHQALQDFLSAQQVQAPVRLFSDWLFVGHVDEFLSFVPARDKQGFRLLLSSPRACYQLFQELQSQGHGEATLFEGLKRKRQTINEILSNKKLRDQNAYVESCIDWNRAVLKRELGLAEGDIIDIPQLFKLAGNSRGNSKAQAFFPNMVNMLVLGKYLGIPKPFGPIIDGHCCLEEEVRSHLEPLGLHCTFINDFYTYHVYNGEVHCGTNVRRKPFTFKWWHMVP

Structure (SMILES) | IC50 (hPAD4; [1]) [nM] | IC50 (hPAD4; read-out: hPAD4 RFMS IC50) [nM] | IC50 (mPAD4; [2]) [nM] | IC50 (mPAD4; read-out: mPAD4 RFMS IC50) [nM] | hPAD4 RFMS pIC50 (hPAD4; pIC50=−log(IC50)) | mPAD4 RFMS pIC50 (mPAD4; pIC50=−log(IC50))
COc1ccc2cc(-c3nc4cc(C(=O)N5CC[C@@H](OC)[C@@H](N)C5)ccc4n3C)n(CC3CC3)c2n1 [Compound I-127] | 1000 to 10000 | 1000 to 5000 | 1000 to 10000 | 1000 to 5000 | – | –
Cn1c(-c2cc3cccnc3n2CC2CC2)nc2cc(C(=O)N3CCC[C@@H](N)C3)cc(CO)c21 [Compound I-128, {5-[(3R)-3-aminopiperidine-1-carbonyl]-2-[1-(cyclopropylmethyl)-1H-pyrrolo[2,3-b]pyridin-2-yl]-1-methyl-1H-1,3-benzodiazol-7-yl}methanol] | 1000 to 10000 | 1000 to 5000 | 1000 to 10000 | 1000 to 5000 | – | –
COc1cc(C(=O)N2CC3CCC2C(N)C3)cc2nc(-c3cc4cccnc4n3CC3CC3)n(C)c12 (stereo not shown) [Compound I-129] | 1000 to 10000 | 1000 to 5000 | 1000 to 10000 | 1000 to 5000 | – | –
COc1ccc2cc(-c3nc4cc(C(=O)N5CC[C@H](OC)[C@H](N)C5)ccc4n3C)n(CC3CC3)c2n1 [Compound I-130] | < 1000 | < 1000 | 1000 to 10000 | 1000 to 5000 | – | –
Cn1c(-c2cc3cccnc3n2CC2CC2)nc2cc(C(=O)N3CCC[C@@H](N)C3)cc(S(C)(=O)=O)c21 [Compound I-131, (3R)-1-{2-[1-(cyclopropylmethyl)-1H-pyrrolo[2,3-b]pyridin-2-yl]-7-methanesulfonyl-1-methyl-1H-1,3-benzodiazole-5-carbonyl}piperidin-3-amine] | 1000 to 10000 | 5000 to 10000 | 10000 to 100000 | > 10000 | – | –
COc1cc(C(=O)N2CCC[C@@H](N)C2)cc2nc(-c3cc4cc(C#N)cnc4n3CC3CC3)n(C)c12 [Compound I-132] | < 1000 | < 1000 | 1000 to 10000 | 1000 to 5000 | – | –
CO[C@@H]1CCN(C(=O)c2cc(OC(F)F)c3c(c2)nc(-c2cc4cccnc4n2CC2CC2)n3C)C[C@@H]1N [Compound I-133] | – | > 10000 | – | 1000 to 5000 | F (pIC50 of 4.0-5.0) | G (pIC50 of 5.0-6.0)
CO[C@H]1CCN(C(=O)c2cc(OC(F)F)c3c(c2)nc(-c2cc4cccnc4n2CC2CC2)n3C)C[C@H]1N [Compound I-134] | 1000 to 10000 | 1000 to 5000 | < 1000 | < 1000 | – | –
CCn1c(-c2nc3cc(C(=O)N4CCC[C@@H](N)C4)cc(OC)c3n2C)cc2ccc(OC)nc21 [Compound I-135] | < 1000 | < 1000 | < 1000 | < 1000 | – | –
COCCn1c(-c2nc3cc(C(=O)N4CCC[C@@H](N)C4)cc(OC)c3n2C)cc2cccnc21 [Compound I-137] | 1000 to 10000 | 1000 to 5000 | 1000 to 10000 | 1000 to 5000 | – | –
CCn1c(-c2nc3cc(C(=O)N4C[C@@H](N)CC[C@H]4C)cc(OC)c3n2C)cc2cccnc21 [Compound I-138] | < 1000 | < 1000 | < 1000 | < 1000 | – | –
CCn1c(-c2nc3cc(C(=O)N4C[C@H]5CC[C@@H]4[C@@H]5N)cc(OC)c3n2C)cc2ccc(OC)nc21 [Compound I-139] | < 1000 | < 1000 | < 1000 | < 1000 | – | –
CCn1c(-c2nc3cc(C(=O)N4C[C@@H]5CC[C@H]4[C@H]5N)cc(OC)c3n2C)cc2ccc(OC)nc21 [Compound I-140] | 1000 to 10000 | 5000 to 10000 | 10000 to 100000 | > 10000 | – | –
COc1cc(C(=O)N2CC[C@H](OC)[C@H](N)C2)cc2nc(-c3cc4cccnc4n3CC3CC3)n(C)c12 [Compound I-142] | 1000 to 10000 | 1000 to 5000 | 1000 to 10000 | 1000 to 5000 | – | –
COc1cc(C(=O)N2CCC[C@@H](N)C2)cc2nc(-c3cc4cccnc4n3CCF)n(C)c12 [Compound I-146] | 1000 to 10000 | 1000 to 5000 | < 1000 | < 1000 | – | –
CCCn1c(-c2nc3cc(C(=O)N4CCC[C@@H](N)C4)cc(OC)c3n2C)cc2cccnc21 [Compound I-149] | < 1000 | < 1000 | < 1000 | < 1000 | – | –

Structure (SMILES) | IC50 (hPAD4; [1]) [nM] | IC50 (hPAD4; read-out: hPAD4 RFMS IC50) [nM] | IC50 (mPAD4; [2]) [nM] | IC50 (mPAD4; read-out: mPAD4 RFMS IC50) [nM] | hPAD4 RFMS pIC50 (hPAD4; pIC50=−log(IC50)) | mPAD4 RFMS pIC50 (mPAD4; pIC50=−log(IC50))
CCn1c(-c2nc3cc(C(=O)N4CCC[C@@H](N)C4)cc(F)c3n2CC)cc2cccnc21 [Compound I-151] | 1000 to 10000 | 1000 to 5000 | 1000 to 10000 | 5000 to 10000 | – | –
CCn1c(-c2nc3cc(C(=O)N4C[C@H]5CC[C@@H]4[C@@H]5N)ccc3n2C)cc2cccnc21 [Compound I-152] | 1000 to 10000 | 1000 to 5000 | 1000 to 10000 | 5000 to 10000 | – | –
CCCn1c(-c2nc3cc(C(=O)N4C[C@H]5CC[C@@H]4[C@@H]5N)cc(OC)c3n2C)cc2cccnc21 [Compound I-154] | < 1000 | < 1000 | < 1000 | < 1000 | – | –
CCn1c(-c2nc3cc(C(=O)N4C[C@H]5CC[C@@H]4[C@@H]5N)cc(OC)c3n2C[C@H]2C[C@@](C)(O)C2)cc2cccnc21 [Compound I-155] | < 1000 | < 1000 | < 1000 | < 1000 | – | –
COc1cc(C(=O)N2C[C@H]3CC[C@@H]2[C@@H]3N)cc2nc(-c3cc4cccnc4n3CCF)n(C)c12 [Compound I-157] | 1000 to 10000 | 1000 to 5000 | 1000 to 10000 | 1000 to 5000 | – | –
CCn1c(-c2nc3cc(C(=O)N4C[C@H]5CC[C@@H]4[C@@H]5N)cc(OC)c3n2C)cc2cccnc21 [Compound I-159] | < 1000 | < 1000 | < 1000 | < 1000 | – | –
CCn1c(-c2nc3cc(C(=O)N4C[C@H]5CC[C@@H]4[C@@H]5N)cc(OC)c3n2C)cc2ccc(C)nc21 [Compound I-160] | < 1000 | < 1000 | < 1000 | < 1000 | – | –
CCn1c(-c2nc3cc(C(=O)N4CCC[C@@H](N)C4)cc(OC)c3n2C)cc2ccc(C)nc21 [Compound I-161] | < 1000 | < 1000 | < 1000 | < 1000 | – | –
COc1cc(C(=O)N2C[C@H]3C[C@H](O)[C@@H]2[C@@H]3N)cc2nc(-c3cc4cccnc4n3CC3CC3)n(C)c12 [Compound I-162, (1S,4R,6S,7R)-7-Amino-2-{2-[1-(cyclopropylmethyl)-1H-pyrrolo[2,3-b]pyridin-2-yl]-7-methoxy-1-methyl-1H-1,3-benzodiazole-5-carbonyl}-2-azabicyclo[2.2.1]heptan-6-ol] | < 1000 | < 1000 | 1000 to 10000 | 1000 to 5000 | – | –
CCn1c(-c2nc3cc(C(=O)N4CCC[C@@H](N)C4)cc(OC)c3n2C[C@H]2C[C@@](C)(OC)C2)cc2cccnc21 [Compound I-163] | 1000 to 10000 | 1000 to 5000 | < 1000 | < 1000 | – | –
CCn1c(-c2nc3cc(C(=O)N4CCC[C@@H](N)C4)cc(F)c3n2C)cc2cccnc21 [Compound I-164] | 1000 to 10000 | 1000 to 5000 | 1000 to 10000 | 5000 to 10000 | – | –
CCn1c(-c2nc3cc(C(=O)N4C[C@H]5CC[C@@H]4[C@@H]5N)cc(F)c3n2C)cc2cccnc21 [Compound I-165] | 1000 to 10000 | 1000 to 5000 | 1000 to 10000 | 1000 to 5000 | – | –
Cn1c(-c2cc3cccnc3n2CC2CC2)nc2cc(C(=O)N3CCC[C@@H](N)C3)cc(F)c21 [Compound I-166] | < 1000 | < 1000 | 1000 to 10000 | 1000 to 5000 | – | –
CCn1c(-c2nc3cc(C(=O)N4CCC[C@@H](N)C4)c(F)cc3n2C)cc2cccnc21 [Compound I-171] | 1000 to 10000 | 5000 to 10000 | 1000 to 10000 | 5000 to 10000 | – | –
Cn1c(-c2cc3cccnc3n2CC2CC2)nc2cc(C(=O)N3CCC[C@@H](N)C3)c(F)cc21 [Compound I-172] | 1000 to 10000 | 1000 to 5000 | 1000 to 10000 | 1000 to 5000 | – | –
